Test results from US20040219201A1, “Tempamine compositions and methods of use” (priority 2001, published 2004).

Test system: MCF-7 (human breast adenocarcinoma)
Experiment: Cytotoxicity assay (methylene blue); nitroxides alone or doxorubicin plus tempamine
Assay type: cell-based
Protocol: As described in Example 1, the cytotoxicity of tempamine was determined on three cell lines, MCF-7 (human breast adenocarcinoma), M-109S (doxorubicin-sensitive human breast carcinoma), and M-109R (doxorubicin-resistant human breast carcinoma). The effect of free tempamine on cell proliferation was determined by a methylene blue assay as described in Example 1B.
FIG. 4 is a plot comparing the percent survival of MCF-7 human breast carcinoma cells at various doses of tempamine (closed circles) and tempol (open circles) in vitro. The cells were analyzed after 72 hours of exposure to the nitroxides. Tempamine and tempol cell growth inhibitory activities were of similar magnitude.
In yet another aspect, the invention contemplates administration of tempamine in combination with chemotherapeutic agent. […] Doxorubicin was chosen as a model chemotherpeutic agent. The enhancement of doxorubicin cytotoxicity by tempamine was tested on three cell lines, as described in Example 1A. A cytotoxicity assay as described in Example 1B was used. Two of the cell lines, MCF-7 and M-109S, were doxorubicin-sensitive lines and one cell line, M-109R, was doxorubicin resistant. MCF-7 cells are more sensitive to tempamine (100 μM caused 75% growth inhibition), but are less sensitive to doxorubicin, than are M-109S cells.
MCF-7 (human breast adenocarcinoma), M-109S (doxorubicin-sensitive human breast carcinoma), and M-109R (doxorubicin-resistant human breast carcinoma) were maintained in RPMI medium (Biological Industries, Beit HaEmek, Israel) supplemented with 10% fetal calf serum (FCS). The cell lines were maintained under standard culture conditions at 37° C. in a humidified 5% CO2 atmosphere.
The effect of tempamine on cell proliferation was determined by the methylene blue assay (Horowitz, A. T., et al., Biochim BiophysActa. 1109:203, (1992)). Briefly, cells were seeded onto 96-well plates (MCF cells at a density of 6×10^3 cells per well, and M-109S and M-109R at a density of 1.5×10^3 cells per well) and allowed to grow for 24 hours prior to treatment with different concentrations of tempamine. After the addition of tempamine (5×10^−5 to 4×10^−4), the cells were incubated in RPMI +10% FCS for four days without change of medium. Then the cells were fixed with 2.5% glutaraldehyde, stained with methylene blue and assayed spectrophotometrically.

Which IC50 (Homo sapiens, MCF7, 72 h, read-out: IC50 (cell growth inhibition)) does the source give for `CC1(C)CC(N)CC(C)(C)N1[O]` [tempamine, 2,2,6,6-tetramethylpiperidine-4-amino-1-oxyl] here?
The IC50 was 210 µM.

What about the growth inhibition (MCF-7, 100 μM tempamine) of the same molecule?
The growth inhibition was 75%.
